According to patent US20080318949A1, “Pyrazolopyrimidinone Derivatives, Their Preparation And Their Use” (Topharman Shanghai Co., Ltd, priority 2005, published 2008):

Key:
[1] = test system: male KM mouse; assay: Acute oral toxicity test; assay type: in vivo; settings: single oral dose of 3 g/kg, 10 or 11 mice per group
Protocol: In this test male KM mouse weighting 18-22 g were used, and 10 or 11 mouse were assigned randomly to each group. […] The animals were fasted for 12 hours before the administration.

[2] = molecular target: T1, PDE3 (Homo sapiens, UniProt Q14432); assay: PDE3 inhibitory activity test (scintillation proximity assay); assay type: biochemical; settings: PDE3 isolated from human platelets
T1 construct: from tissue; host or cells: human platelets
From the text: (§1) The PDE5 and PDE3 were isolated form human platelets, while the PDE6 was isolated form bovine retinas. The enzyme inhibitory activity test conducted immediately after the enzymes had been isolated, using a scintillation proximity assay for the direct detection of AMP/GMP by the TRKQ7100 and TRKQ7090 kit. In summary, the effect of PDE inhibitors was investigated by assaying a fixed amount of enzyme in the presence of varying inhibitor concentrations and low substrate. The final assay volume was made up to 100 μl with 10 μl assay buffer (50 mM Tris/HCl PH 7.5, 8.3 mM MgCl2, 1.7 mM EGTA), and water. Reactions were initiated with enzyme, incubate for 30 minutes at 30° C. and terminated with 50 μl yttrium silicate SPA beads suspension containing zinc sulphate. Shook for 20 minutes and settled for 30 minutes in the dark, then counted on a BECKMAN LS6500 MULTI-PURPOSE SCINTILLATION COUNTER. The IC50 value for the compounds according the present invention was calculated according the counts.
PDE3 is a PDE isozyme distributed mainly in heart, so the inhibiting of PDE3 may lead to side effects associated with heart. Accordingly, the inhibitory activities of some example compounds according to the invention against PDE3 were determined.

[3] = molecular target: T2, PDE5 from human platelets (Homo sapiens, UniProt O76074); assay: PDE5 inhibitory activity test (scintillation proximity assay); assay type: biochemical
T2 construct: from tissue; host or cells: human platelets
From the text: as §1
According to the above-mentioned method, the inhibitory activities of some compounds of formula IA and IB according to the invention against PDE5 from human platelets were determined.

[4] = test system: rat corpora cavernosa; assay: Pharmacodynamic test: intracavernous pressure on electric stimulation of the cavernous nerve; assay type: in vivo; settings: anesthetized male SD rats, 5 mg/kg orally, ratio of ICP to MBp
Protocol: The test was carried out based on the methods reported (International Journal of Impotence Research 2002, 14, 251 and The Journal of Urology 1992, 147, 1124). After fasted for 12 hours, 4 male SD rats were randomized into each group. After anesthetizing the rats with sodium pentobarbital (50 mg/kg, i.p.), the penile skin was incised and the prepuce was degloved to expose completely the corpora cavernosa (CC). A needle linked to an electrophysiology instrument was inserted into the CC on the right side in order to measure the intracavernous pressure (ICP). The right carotid artery was cannulated in a similar manner to the polyethylene tube in order to monitor the mean blood pressure (MBp) continuously. […] Electric stimulation was performed at 2 Hz, for 60 s with a pulse duration of 5 ms and 3V using a stimulator. The compounds were administrated orally (5 mg/kg). The change of the ICP and MBp were monitored continuously before and after the administration. The effect of the compounds on the erection induced by electric stimulation was evaluated by the ratio of ICP to MBp. The parameter (ICP/MBp) was used to estimate the influence of the compounds to the rat corpora cavernosa. […] The statistical significance of the differences between groups was calculated using Duncan's multiple comparison.

[5] = molecular target: T3, PDE6 from bovine retina (Bos taurus, UniProt P11541+P23439); assay: PDE6 inhibitory activity test (scintillation proximity assay); assay type: biochemical; settings: for IC50: PDE6 from bovine retina; for PDE6 IC50/PDE5 IC50: selectivity of PDE5 versus PDE6
T3 construct: the PDE6 was isolated form bovine retinas; from tissue; host or cells: bovine retina
T3 sequence (P11541 2-856 limits assumed): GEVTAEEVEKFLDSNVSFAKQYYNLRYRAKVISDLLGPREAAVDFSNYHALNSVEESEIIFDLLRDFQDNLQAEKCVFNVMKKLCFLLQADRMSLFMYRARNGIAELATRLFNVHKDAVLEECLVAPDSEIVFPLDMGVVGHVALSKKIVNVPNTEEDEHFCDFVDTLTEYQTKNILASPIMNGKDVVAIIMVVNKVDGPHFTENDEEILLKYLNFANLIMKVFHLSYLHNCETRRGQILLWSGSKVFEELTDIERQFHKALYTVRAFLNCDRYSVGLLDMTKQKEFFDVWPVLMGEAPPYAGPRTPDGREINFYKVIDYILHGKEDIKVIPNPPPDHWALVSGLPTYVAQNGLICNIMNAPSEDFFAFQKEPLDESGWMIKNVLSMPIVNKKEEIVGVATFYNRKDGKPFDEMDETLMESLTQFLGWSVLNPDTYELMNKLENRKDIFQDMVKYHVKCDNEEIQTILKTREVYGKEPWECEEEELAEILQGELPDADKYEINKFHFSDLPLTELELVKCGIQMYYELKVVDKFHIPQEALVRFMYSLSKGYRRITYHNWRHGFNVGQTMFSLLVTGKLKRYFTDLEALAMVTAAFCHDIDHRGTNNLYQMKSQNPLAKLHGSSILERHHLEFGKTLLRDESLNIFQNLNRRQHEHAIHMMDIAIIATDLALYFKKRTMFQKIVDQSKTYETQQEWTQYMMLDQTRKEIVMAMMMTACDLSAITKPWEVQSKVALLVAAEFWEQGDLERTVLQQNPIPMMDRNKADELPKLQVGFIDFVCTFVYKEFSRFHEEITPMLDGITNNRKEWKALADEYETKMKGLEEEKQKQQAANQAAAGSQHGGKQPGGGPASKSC
T3 sequence (P23439 2-850 limits assumed): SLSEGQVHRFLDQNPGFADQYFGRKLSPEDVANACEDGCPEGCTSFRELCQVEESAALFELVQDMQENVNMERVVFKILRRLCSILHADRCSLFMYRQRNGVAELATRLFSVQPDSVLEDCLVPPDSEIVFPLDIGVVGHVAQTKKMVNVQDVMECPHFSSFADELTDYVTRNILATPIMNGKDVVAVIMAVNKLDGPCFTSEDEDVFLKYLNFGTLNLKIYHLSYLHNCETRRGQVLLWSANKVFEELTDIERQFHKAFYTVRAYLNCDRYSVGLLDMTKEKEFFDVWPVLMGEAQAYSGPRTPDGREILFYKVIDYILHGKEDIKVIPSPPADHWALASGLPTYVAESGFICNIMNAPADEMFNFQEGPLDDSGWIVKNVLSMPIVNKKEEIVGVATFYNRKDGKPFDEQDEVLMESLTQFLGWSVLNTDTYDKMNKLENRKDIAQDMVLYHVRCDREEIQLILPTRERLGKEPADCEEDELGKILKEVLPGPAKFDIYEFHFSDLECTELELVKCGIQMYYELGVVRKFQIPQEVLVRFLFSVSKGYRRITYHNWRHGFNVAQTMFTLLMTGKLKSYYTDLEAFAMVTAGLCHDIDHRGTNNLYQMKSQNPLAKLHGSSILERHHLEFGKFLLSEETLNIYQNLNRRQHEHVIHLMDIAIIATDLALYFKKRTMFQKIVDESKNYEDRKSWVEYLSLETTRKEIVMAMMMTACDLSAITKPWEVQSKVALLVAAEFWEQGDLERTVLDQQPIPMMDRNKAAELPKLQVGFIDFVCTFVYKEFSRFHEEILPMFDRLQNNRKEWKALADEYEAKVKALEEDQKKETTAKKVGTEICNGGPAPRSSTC
From the text: as §1

[6] = PDE5 in the PDE6 selectivity table

T1 sequence (Q14432 whole entry): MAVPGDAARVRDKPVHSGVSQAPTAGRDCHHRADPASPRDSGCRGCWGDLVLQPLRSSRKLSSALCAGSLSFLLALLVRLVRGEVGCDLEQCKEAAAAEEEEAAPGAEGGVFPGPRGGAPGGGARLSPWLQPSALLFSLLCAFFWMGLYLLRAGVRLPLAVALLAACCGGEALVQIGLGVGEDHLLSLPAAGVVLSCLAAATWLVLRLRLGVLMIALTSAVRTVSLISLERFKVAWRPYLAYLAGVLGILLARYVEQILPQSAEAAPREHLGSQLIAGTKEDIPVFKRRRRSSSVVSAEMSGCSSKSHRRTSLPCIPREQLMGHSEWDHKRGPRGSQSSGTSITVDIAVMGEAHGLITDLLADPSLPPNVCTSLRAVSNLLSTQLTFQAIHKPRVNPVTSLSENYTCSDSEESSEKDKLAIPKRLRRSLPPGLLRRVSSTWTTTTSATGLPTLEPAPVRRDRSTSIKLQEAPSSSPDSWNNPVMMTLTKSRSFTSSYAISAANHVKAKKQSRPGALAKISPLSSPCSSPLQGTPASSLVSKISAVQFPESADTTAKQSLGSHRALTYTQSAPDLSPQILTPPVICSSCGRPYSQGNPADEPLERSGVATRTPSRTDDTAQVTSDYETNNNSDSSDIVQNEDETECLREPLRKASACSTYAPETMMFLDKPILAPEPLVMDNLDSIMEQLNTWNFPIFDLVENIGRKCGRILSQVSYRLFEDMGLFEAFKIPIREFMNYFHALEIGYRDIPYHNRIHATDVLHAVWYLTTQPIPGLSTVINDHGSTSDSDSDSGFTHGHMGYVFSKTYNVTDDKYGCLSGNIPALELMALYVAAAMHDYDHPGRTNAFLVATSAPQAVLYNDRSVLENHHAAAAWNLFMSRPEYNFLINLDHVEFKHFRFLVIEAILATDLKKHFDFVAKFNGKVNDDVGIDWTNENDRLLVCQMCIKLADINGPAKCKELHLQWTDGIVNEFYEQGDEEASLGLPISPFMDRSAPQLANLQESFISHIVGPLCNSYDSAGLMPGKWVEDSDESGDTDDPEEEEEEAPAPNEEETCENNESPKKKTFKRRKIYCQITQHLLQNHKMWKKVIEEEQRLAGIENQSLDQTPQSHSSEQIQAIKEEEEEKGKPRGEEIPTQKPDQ

In the case of `CCCOc1ccc(S(=O)(=O)N(CCOCC)CCN2CCOCC2)cc1-c1nc2c(CCC)nn(C)c2c(=O)[nH]1` [Example 111, 1-methyl-5-{2-propoxy-5-[[1-(2-ethoxyethyl)-1-(2-morpholin-1-yl)ethyl]amidosulfonyl]phenyl}-3-n-propyl-1,6-dihydro-7H-pyrazolo[4,3-d]pyrimidin-7-one], the Number of death [1] is reported as 0, the mortality rate [1] is reported as 0% and the IC50 [2] is reported as 8730 nM. For the same molecule, the IC50 ([3]; PDE5 from human platelets) was 6.83 nM and the ICP/BP [4] was 89.1 ± 6.9.

With `CCCOc1ccc(S(=O)(=O)N(C)CCOC(C)=O)cc1-c1nc2c(CCC)nn(C)c2c(=O)[nH]1` [Example 33, 1-methyl-5-{2-propoxy-5-[[1-methyl-1-(2-acetoxyethyl)]amidosulfonyl]phenyl}-3-n-propyl-1,6-dihydro-7H-pyrazolo[4,3-d]pyrimidin-7-one] the IC50 [2] was 30400 nM and the ICP/BP [4] was 72.3 ± 28.6.

Molecule `CCCOc1ccc(S(=O)(=O)N(CCOC(C)=O)CCN2CCOCC2)cc1-c1nc2c(CCC)nn(C)c2c(=O)[nH]1` [Example 96, 1-methyl-5-{2-propoxy-5-[[1-(2-acetoxyethyl)-1-(2-morpholin-1-yl)ethyl]amidosulfonyl]phenyl}-3-n-propyl-1,6-dihydro-7H-pyrazolo[4,3-d]pyrimidin-7-one] has a Number of death [1] of 0, a mortality rate [1] of 0% and an IC50 [2] of 12400 nM. For the same molecule, the IC50 ([3]; PDE5 from human platelets) was 4.24 nM, the IC50 [3, 6] was 4.24 nM and the ICP/BP [4] was 81.0 ± 9.5. For the same molecule, the IC50 [5] was 244 nM and the “PDE6 IC50/PDE5 IC50” value [5] was 57.7.

`CCCOc1ccc(S(=O)(=O)N(CCCO)CCCOC(C)=O)cc1-c1nc2c(CCC)nn(C)c2c(=O)[nH]1` [Example 92, 1-methyl-5-{2-propoxy-5-[[1-(3-acetoxypropyl)-1-(3-hydroxypropyl)]amidosulfonyl]phenyl}-3-n-propyl-1,6-dihydro-7H-pyrazolol[4,3-d]pyrimidin-7-one] showed a Number of death [1] of 0, a mortality rate [1] of 0% and an IC50 [2] of 10500 nM. For the same molecule, the IC50 ([3]; PDE5 from human platelets) was 3.85 nM, the IC50 [3, 6] was 3.85 nM and the ICP/BP [4] was 86.4 ± 4.8. The IC50 [5] was 254 nM and the “PDE6 IC50/PDE5 IC50” value [5] was 66.0.

Molecule `CCCOc1ccc(S(=O)(=O)N(CCN2CCCC2)Cc2cccnc2)cc1-c1nc2c(CCC)nn(C)c2c(=O)[nH]1` [Example 89, 1-methyl-5-{2-propoxy-5-[[1-(3-pyridylmethyl)-1-(2-pyrrolidin-1-yl)ethyl]amidosulfonyl]phenyl}-3-n-propyl-1,6-dihydro-7H-pyrazolo[4,3-d]pyrimidin-7-one] has a Number of death [1] of 5, a mortality rate [1] of 45% and an IC50 ([3]; PDE5 from human platelets) of 7.85 nM. The IC50 [3, 6] was 7.85 nM, the ICP/BP [4] was 70.9 ± 9.8 and the IC50 [5] was 215 nM. For the same molecule, the “PDE6 IC50/PDE5 IC50” value [5] was 27.4.

In the case of `CCCOc1ccc(S(=O)(=O)N(CCCOC(C)=O)CCCOC(C)=O)cc1-c1nc2c(CCC)nn(C)c2c(=O)[nH]1` [Example 93, 1-methyl-5-{2-propoxy-5-[bis(3-acetoxypropyl)amidosulfonyl]phenyl}-3-n-propyl-1,6-dihydro-7H-pyrazolo[4,3-d]pyrimidin-7-one], the Number of death [1] is reported as 0, the mortality rate [1] is reported as 0% and the IC50 [2] is reported as 6000 nM. For the same molecule, the IC50 ([3]; PDE5 from human platelets) was 3.8 nM and the ICP/BP [4] was 77.2 ± 24.8.

In the case of `CCCOc1ccc(S(=O)(=O)N(CCN2CCOCC2)Cc2cccnc2)cc1-c1nc2c(CCC)nn(C)c2c(=O)[nH]1` [Example 62, 1-methyl-5-{2-propoxy-5-[[1-(3-pyridylmethyl)-1-(2-morpholin-1-yl)ethyl]amidosulfonyl]phenyl}-3-n-propyl-1,6-dihydro-7H-pyrazolo[4,3-d]pyrimidin-7-one], the Number of death [1] is reported as 6, the mortality rate [1] is reported as 60% and the IC50 [2] is reported as 2860 nM. It also gave an ICP/BP [4] of 69.8 ± 12.2.

`CCCOc1ccc(S(=O)(=O)N(CCCOC)CCCOC(C)=O)cc1-c1nc2c(CCC)nn(C)c2c(=O)[nH]1` [Example 118, 1-methyl-5-{2-propoxy-5-[[1-(3-methoxypropyl)-1-(3-acetoxypropyl)]amidosulfonyl]phenyl}-3-n-propyl-1,6-dihydro-7H-pyrazolo[4,3-d]pyrimidin-7-one] showed a Number of death [1] of 0, a mortality rate [1] of 0% and an IC50 [2] of 20500 nM. It also gave an IC50 ([3]; PDE5 from human platelets) of 5.41 nM, an IC50 [3, 6] of 5.41 nM and an ICP/BP [4] of 77.9 ± 2.3. For the same molecule, the IC50 [5] was 203 nM and the “PDE6 IC50/PDE5 IC50” value [5] was 37.6.

In the case of `CCCOc1ccc(S(=O)(=O)N(CC)CCN2CCOCC2)cc1-c1nc2c(CC)nn(C)c2c(=O)[nH]1` [Example 54, 1-methyl-5-{2-propoxy-5-[[1-ethyl-1-(2-morpholin-1-yl)ethyl]amidosulfonyl]phenyl}-3-ethyl-1,6-dihydro-7H-pyrazolo[4,3-d]pyrimidin-7-one], the Number of death [1] is reported as 0, the mortality rate [1] is reported as 0% and the IC50 [2] is reported as 16300 nM. The IC50 ([3]; PDE5 from human platelets) was 9.81 nM, the IC50 [3, 6] was 9.81 nM and the ICP/BP [4] was 86.3 ± 6.4. The IC50 [5] was 235 nM and the “PDE6 IC50/PDE5 IC50” value [5] was 23.9.

Molecule `CCCOc1ccc(S(=O)(=O)N(CC)CCCOC(C)=O)cc1-c1nc2c(CCC)nn(C)c2c(=O)[nH]1` [Example 97, 1-methyl-5-{2-propoxy-5-[[1-ethyl-1-(3-acetoxypropyl)]amidosulfonyl]phenyl}-3-n-propyl-1,6-dihydro-7H-pyrazolo[4,3-d]pyrimidin-7-one] has a Number of death [1] of 5, a mortality rate [1] of 45% and an IC50 [2] of 5120 nM. For the same molecule, the IC50 ([3]; PDE5 from human platelets) was 13.1 nM and the ICP/BP [4] was 72.0 ± 13.5.
